Key:
Cyclin K = assay: Immunohistochemistry (IHC) staining of Cyclin K in HepG2 cells; type: cell-based; details: incubated with compound 2 hours, CCNK antibody
Protocol: Appropriate amount of compounds were added to the cultured cells. The cells were incubated in a tissue culture incubator at 37° C. for 2 hours.
After washing the cultured cells twice with PBS, 100 μL 10% neutral buffered formalin were added and the cells were fixed for 20 minutes.
After washing 3 times with PBS, immunohistochemical staining was performed using CCNK antibody and general two-step detection kit (mouse/rabbit enhanced polymer detection system, PV-9000, Zsbio Inc, Beijing).
Specifically, 100 μL of endogenous peroxidase blocker in the kit was added, cells were incubated at room temperature for 10 minutes; rinsed with PBS buffer for 3 minutes×3 times.
100 μL CCNK antibody 1:5000 dilution was added, and the cells were incubated at 37° C. for 60 minutes; rinsed with PBS buffer for 3 minutes×3 times.
100 μL reaction enhancer was added, and the cells were incubated at 37° C. for 20 minutes; rinsed with PBS buffer for 3 minutes×3 times.
100 μL enhanced enzyme-labeled goat anti-mouse/rabbit IgG polymer was added, and the cells were incubated at 37° C. for 20 minutes; rinsed with PBS buffer for 3 minutes×3 times.
The cells were placed in 75% ethanol, soaked for 3 minutes×2 times; placed in 95% ethanol, soaked for 3 minutes×2 times; after removing excess liquid, placed in anhydrous ethanol, soaked for 3 minutes×3 times; after removing excess liquid, air dried, observed under a microscope and taken pictures after sealing.

HepG2 cells = assay: Antiproliferative effect on HepG2 cells; type: cell-based; details: Homo sapiens
Protocol: Reagents: RPMI-1640 medium, McCoy's 5A medium, IMDM medium, MEM medium, L-15 medium, fetal bovine serum, Penicillin-Streptomycin double antibody, trypsin, etc., 2-mercaptoethanol, NEAA, pyruvate, etc.
The test cells were cultured in conventional ways, and the cells should be passed for at least 2 generations before plating.
All cells were subjected to IC50 test for corresponding samples.
The fluorescence intensity of each well was detected using the Alarm blue method, and EC50 was calculated.
IC50 was calculated according to the following formula:
[formula] • wherein, Min, Max and Slope represent the minimum, maximum and slope respectively.

Row | IC50 (HepG2 cells) [µM] | SMILES | Cyclin K IHC data of HepG2 cells (Cyclin K)
1 | 0.05 to 0.1 | CC(C)n1cnc2c(NCc3ccc(-c4ccccc4)cc3)nc(N3CCNC[C@@H]3C)nc21 [UB-021, (S)-N-([1,1′-biphenyl]-4-ylmethyl)-9-isopropyl-2-(2-methylpiperazin-1-yl)-9H-purin-6-amine] | C (93 nM < C <= 278 nM)
2 | 0.05 to 0.1 | CC(C)n1cnc2c(NCc3ccc(-c4ccccc4)cc3)nc(OC[C@@H]3CNCCN3)nc21 [UB-033, (S)-N-([1,l′-biphenyl]-4-ylmethyl)-9-isopropyl-2-(piperazin-2-ylmethoxy)-9H-purin-6-amine] | C (93 nM < C <= 278 nM)
3 | 0.1 to 0.3 | CC(C)n1cnc2c(NCc3ccc(-c4ccccc4O)cc3)nc(N3CCNCC3)nc21 [UB-046, 4′-(((9-isopropyl-2-(piperazin-1-yl)-9H-purin-6-yl)amino)methyl)-[1,1′-biphenyl]-2-ol] | D (D > 278 nM)
4 | < 0.05 | CC(C)n1cnc2c(NCc3ccc(-c4ccccc4)cc3)nc(N3CCN[C@@H](C)C3)nc21 [UB-026, (S)-N-([1,1′-biphenyl]-4-ylmethyl)-9-isopropyl-2-(3-methylpiperazin-1-yl)-9H-purin-6-amine] | B (31 nM < B <= 93 nM)
5 | < 0.05 | CC(C)n1cnc2c(NCc3ccc(-c4ccccc4)cc3)nc(N3CCNC[C@H]3CO)nc21 [UB-022, (S)-(1-(6-(([1,1′-biphenyl]-4-ylmethyl)amino)-9-isopropyl-9H-purin-2-yl)piperazin-2-yl) methanol] | A (A <= 31 nM)
6 | < 0.05 | CC(C)n1cnc2c(NCc3ccc(-c4ccccc4)cc3)nc(N[C@H]3C[C@H](N)C3)nc21 [UB-061, N6-([1,1′-biphenyl]-4-yl-methyl)-N2-((1r,3r)-3-aminocyclobutyl)-9-isopropyl-9H-purin-2,6-diamine] | B (31 nM < B <= 93 nM)
7 | – | CC(C)n1cnc2c(NCc3ccc(-c4ccccc4)cc3)nc(N3CCN[C@H](CO)C3)nc21 [UB-029, (S)-(4-(6-(([1,1′-biphenyl]-4-ylmethyl)amino)-9-isopropyl-9H-purin-2-yl)piperazin-2-yl) methanol] | B (31 nM < B <= 93 nM)
8 | < 0.05 | CC(C)n1cnc2c(NCc3ccc(-c4ccccc4)cc3)nc(N3CCNC[C@H]3C)nc21 [UB-020, (R)-N-([1,1′-biphenyl]-4-ylmethyl)-9-isopropyl-2-(2-methylpiperazin-1-yl)-9H-purin-6-amine] | B (31 nM < B <= 93 nM)
9 | – | CC(C)n1cnc2c(NCc3ccc(-c4ccccc4)cc3)nc(N3CCN[C@H](CCO)C3)nc21 [UB-031, (R)-2-(4-(6-(([1,1′-biphenyl]-4-ylmethyl)amino)-9-isopropyl-9H-purin-2-yl)piperazin-2-yl) ethan-1-ol] | B (31 nM < B <= 93 nM)
10 | 0.05 to 0.1 | CC(C)n1cnc2c(NCc3ccc(-c4ccccc4)cc3)nc(N3CCNC[C@@H]3CO)nc21 [UB-023, (R)-(1-(6-(([1,1′-biphenyl]-4-ylmethyl)amino)-9-isopropyl-9H-purin-2-yl)piperazin-2-yl) methanol] | C (93 nM < C <= 278 nM)
11 | > 0.3 | Cn1cc(-n2cnc3c(NCc4ccc(-c5ccccc5)cc4)nc(N4CCNCC4)nc32)cn1 [UB-055, N-([1,1′-biphenyl]-4-ylmethyl)-9-(1-methyl-1H-pyrazol-4-yl)-2-(piperazin-1-yl)-9H-purin-6-amine] | D (D > 278 nM)
12 | 0.1 to 0.3 | CC(C)n1cnc2c(NCc3ccc(-c4ccccc4OCCCC#N)cc3)nc(N3CCNCC3)nc21 [UB-051, 4-((4′-(((9-isopropyl-2-(piperazin-1-yl)-9H-purin-6-yl)amino)methyl)-[1,1′-biphenyl]-2-yl)oxy)butyronitrile] | D (D > 278 nM)
13 | 0.1 to 0.3 | CCCOc1ccccc1-c1ccc(CNc2nc(N3CCNCC3)nc3c2ncn3C(C)C)cc1 [UB-049, 9-isopropyl-2-(piperazin-1-yl)-N-((2′-propoxy-[1,1′-biphenyl]-4-yl)methyl)-9H-purin-6-amine] | D (D > 278 nM)
14 | < 0.05 | c1ccc(-c2ccc(CNc3nc(N4CCNCC4)nc4c3ncn4C3CCC3)cc2)cc1 [UB-052, N-([1,l′-biphenyl]-4-ylmethyl)-9-cyclobutyl-2-(piperazin-1-yl)-9H-purin-6-amine] | C (93 nM < C <= 278 nM)
15 | 0.1 to 0.3 | CC(C)n1cnc2c(NCc3ccc(-c4ccccc4)c(OCCO)c3)nc(N3CCNCC3)nc21 [UB-043, 2-((4-(((9-isopropyl-2-(piperazin-1-yl)-9H-purin-6-yl)amino)methyl)-[1,1′-biphenyl]-2-yl)oxy)ethanol] | D (D > 278 nM)
16 | – | CC(C)n1cnc2c(NCc3ccc(-c4ccccc4)cc3)nc(NC3CCNCC3)nc21 [UB-016, N6-([1,1′-biphenyl]-4-yl-methyl)-9-isopropyl-N2-(Piperidin-4-yl)-9H-purin-2,6-diamine] | C (93 nM < C <= 278 nM)
17 | > 0.3 | CC(C)n1cnc2c(NCc3ccc(-c4ccccc4)c(OCCN)c3)nc(N3CCNCC3)nc21 [UB-062, N-((2-(2-aminoethoxy)-[1,l′-biphenyl]-4-yl)methyl)-9-isopropyl-2-(piperazin-1-yl)-9H-purin-6-amine] | D (D > 278 nM)
18 | > 0.3 | CC(C)n1cnc2c(NCc3ccc(-c4ccccc4OCCN)cc3)nc(N3CCNCC3)nc21 [UB-048, N-((2′-(2-aminoethoxy)-[1,1′-biphenyl]-4-yl)methyl)-9-isopropyl-2-(piperazin-1-yl)-9H-purin-6-amine] | D (D > 278 nM)
19 | – | Fc1cccc(-n2cnc3c(NCc4ccc(-c5ccccc5)cc4)nc(N4CCNCC4)nc32)c1 [UB-054, N-([1,1′-biphenyl]-4-ylmethyl)-9-(3-fluorophenyl)-2-(piperazin-1-yl)-9H-purin-6-amine] | D (D > 278 nM)
20 | < 0.05 | CC(C)n1cnc2c(NCc3ccc(-c4ccccc4)cc3)nc(N[C@@H]3CCNC3)nc21 [UB-038, (R)-N6-([1,1′-biphenyl]-4-ylmethyl)-9-isopropyl-N2-(pyrrolidin-3-yl)-9H-purin-2,6-diamine] | C (93 nM < C <= 278 nM)
21 | 0.05 to 0.1 | CC(C)n1cnc2c(NCc3ccc(-c4ccccc4OCCO)cc3)nc(N3CCNCC3)nc21 [UB-047, 2-((4′-(((9-isopropyl-2-(piperazin-1-yl)-9H-purin-6-yl)amino)methyl)-[1,1′-biphenyl]-2-yl)oxy)ethan-1-ol] | D (D > 278 nM)
22 | – | CC(C)n1cnc2c(NCc3ccc(-c4ccccc4)cc3)nc(N3CCN[C@@H](CO)C3)nc21 [UB-028, (R)-(4-(6-(([1,1′-biphenyl]-4-ylmethyl)amino)-9-isopropyl-9H-purin-2-yl)piperazin-2-yl) methanol] | A (A <= 31 nM)
23 | – | CC(C)n1cnc2c(NCc3ccc(-c4ccccc4)cc3)nc(N3CCNC[C@@H]3CCO)nc21 [UB-025, (S)-2-(1-(6-(([1,1′-biphenyl]-4-ylmethyl)amino)-9-isopropyl-9H-purin-2-yl)piperazin-2-yl) ethan-1-ol] | A (A <= 31 nM)
24 | – | CC(C)n1cnc2c(NCc3ccc(-c4ccccc4)cc3)nc(N3CCNC[C@H]3CCO)nc21 [UB-024, (R)-2-(1-(6-(([1,1′-biphenyl]-4-ylmethyl)amino)-9-isopropyl-9H-purin-2-yl)piperazin-2-yl) ethan-1-ol] | A (A <= 31 nM)
25 | – | CC(C)n1cnc2c(NCc3ccc(-c4ccccc4)cc3)nc(N3C[C@@H](C)N[C@@H](C)C3)nc21 [UB-060, N-([1,1′-biphenyl]-4-ylmethyl)-2-((3R,5S)-3,5-dimethylpiperazin-1-yl)-9-isopropyl-9H-purin-6-amine] | A (A <= 31 nM)
26 | – | CC(C)n1cnc2c(NCc3ccc(-c4ccccc4)cc3)nc(N3CCN[C@@H](CCO)C3)nc21 [UB-030, (S)-2-(4-(6-(([1,1′-biphenyl]-4-ylmethyl)amino)-9-isopropyl-9H-purin-2-yl)piperazin-2-yl) ethan-1-ol] | B (31 nM < B <= 93 nM)
27 | – | CC(C)n1cnc2c(NCc3ccc(-c4ccccc4)cc3)nc(N3CCNC4(CC4)C3)nc21 [UB-059, N-([1,1′-biphenyl]-4-ylmethyl)-9-isopropyl-2-(4,7-diazaspiro[2.5]octan-7-yl)-9H-purin-6-amine] | B (31 nM < B <= 93 nM)
28 | – | CC(C)n1cnc2c(NCc3ccc(-c4ccccc4)cc3)nc(N3C[C@@H](C)N[C@H](C)C3)nc21 [UB-032, N-([1,1′-biphenyl]-4-ylmethyl)-2-((3R,5R)-3,5-dimethylpiperazin-1-yl)-9-isopropyl-9H-purin-6-amine] | D (D > 278 nM)

— patent US20260152501A1, “CYCLIN MODULATOR” (EUBULUS BIOTHERAPEUTICS (HONG KONG) LIMITED, priority 2022, published 2026)
